Test results taken from US20100292205A1, “Pyrimidone Compounds As GSK-3 Inhibitors” (PFIZER INC., priority 2006, published 2010).
Like-named read-outs stand apart in the source and are kept apart here. Each block holds one compound with its values, some of them ahead of it.

Target: T1, Recombinant human GSK3β (Homo sapiens, UniProt P49841)
T1 construct: His-tag; made in house; host or cells: Sf9 insect cells / baculovirus
Assay: GSK-3β (Glycogen Synthase Kinase) cell free enzyme assay
Format: biochemical
Details: for IC50: cell free enzyme assay; for inhibition at 1 µM: read-out: Percent inhibition at 1 μM
In short: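 Recombinant human GSK3β, expressed in SF9/baculovirus cells and His-tag purified on Ni-NTA Superflow, was preincubated with test agent for 30 minutes at room temperature. Substrate mix was then added to start the reaction in 8 mM MOPS (pH 7.0), 10 mM magnesium acetate, 0.2 mM EDTA, 1 mM DTT, 2 uM cold ATP, 0.025 uCi/well [33P]ATP (120 uL) and 1.0 uM biotinylated peptide. Reactions ran at RT for 60 min.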

T1 sequence (P49841 whole entry): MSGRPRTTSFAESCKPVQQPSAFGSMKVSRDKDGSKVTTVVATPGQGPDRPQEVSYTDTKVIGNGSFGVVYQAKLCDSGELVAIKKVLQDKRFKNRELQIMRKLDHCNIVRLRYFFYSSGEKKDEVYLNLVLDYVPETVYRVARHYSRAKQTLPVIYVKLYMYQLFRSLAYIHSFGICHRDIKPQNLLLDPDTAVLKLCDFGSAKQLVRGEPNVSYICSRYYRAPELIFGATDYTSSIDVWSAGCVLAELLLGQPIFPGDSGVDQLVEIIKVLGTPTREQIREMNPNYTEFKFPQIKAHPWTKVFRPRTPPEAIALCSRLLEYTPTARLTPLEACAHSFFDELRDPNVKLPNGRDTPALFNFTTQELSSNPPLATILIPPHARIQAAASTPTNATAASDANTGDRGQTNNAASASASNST

IC50 (Examples 222-234): 0.755 nM
SMILES: CCOC(=O)N1CCC[C@H]1CN(CC)c1nc(-c2ccncn2)cc(=O)n1C [Example 225, Ethyl (2S)-2-{[ethyl(1-methyl-6-oxo-1,6-dihydro-4,4′-bipyrimidin-2-yl)amino]methyl}pyrrolidine-1-carboxylate]

IC50 (Examples 62-155): 3.29 nM
SMILES: CN(c1nc(-c2ccncc2F)cc(=O)n1C)[C@H]1[C@@H]2CN(C(=O)c3cccc(F)c3F)C[C@@H]21 [Example 137, 2-{[(1R,5S,6s)-3-(2,3-Difluorobenzoyl)-3-azabicyclo[3.1.0]hex-6-yl](methyl)amino}-6-(3-fluoropyridin-4-yl)-3-methylpyrimidin-4(3H)-one]

inhibition at 1 µM (Examples 157-199): 61%
SMILES: Cn1c(NC2CN(S(=O)(=O)c3ccccc3)C2)nc(-c2ccncc2)cc1=O [Example 171, 3-Methyl-2-{[1-(phenylsulfonyl)azetidin-3-yl]amino}-6-pyridin-4-ylpyrimidin-4(3H)-one]

inhibition at 1 µM (Examples 236-262): 83%
SMILES: CN(c1nc(-c2ccncc2)cc(=O)n1C)C1CCN(Cc2ccccc2)C1 (centres unmarked) [Example 256, 2-[(1-Benzylpyrrolidin-3-yl)(methyl)amino]-3-methyl-6-pyridin-4-ylpyrimidin-4(3H)-one]

inhibition at 1 µM (Examples 236-262): 60%
SMILES: CCN(c1nc(-c2ccncc2)cc(=O)n1C)C1CCN(C)C1 (centres unmarked) [Example 244, 2-[ethyl(1-Methylpyrrolidin-3-yl)amino]-3-methyl-6-pyridin-4-ylpyrimidin-4(3H)-one]

IC50 (Examples 62-155): 102 nM
SMILES: CN(c1nc(-c2ccncc2)cc(=O)n1C)C1CCCN(C(=O)Cc2ccccc2)CC1 (centres unmarked) [Example 88, 3-Methyl-2-{methyl[1-(phenylacetyl)azepan-4-yl]amino}-6-pyridin-4-ylpyrimidin-4(3H)-one]

IC50 (Examples 265-291): 5670 nM
SMILES: Cc1nc(N2C[C@@H]3[C@H](C2)[C@H]3N(C)c2nc(-c3ccncc3F)cc(=O)n2C)n2nc(-c3ccccc3Cl)c(I)c2n1 [Example 285, 2-[{(1R,5S,6s)-3-[7-(2-Chlorophenyl)-8-iodo-2-methylpyrazolo[1,5-a][1,3,5]triazin-4-yl]-3-azabicyclo[3.1.0]hex-6-yl}(methyl)amino]-6-(3-fluoropyridin-4-yl)-3-methylpyrimidin-4(3H)-one]

IC50 (Examples 265-291): 24.6 nM
SMILES: CN(c1nc(-c2ccncc2F)cc(=O)n1C)[C@H]1[C@@H]2CN(c3nc4ccccc4o3)C[C@@H]21 [Example 270, 2-{[(1R,5S,6s)-3-[1,3-Benzoxazol-2-yl)-3-azabicyclo[3.1.0]hex-6-yl](methyl)amino}-6-(3-fluoropyridin-4-yl)-3-methylpyrimidin-4(3H)-one]

inhibition at 1 µM (Examples 236-262): 33%
SMILES: CN1CC(CNc2nc(-c3ccncc3)cc(=O)n2C)C1 [Example 249, 3-Methyl-2-{[(1-methylazetidin-3-yl)methyl]amino}-6-pyridin-4-ylpyrimidin-4(3H)-one]

inhibition at 1 µM (Examples 201-221): 86%
SMILES: COC(=O)N1CCCC(Nc2nc(-c3ccncc3)cc(=O)n2C)CC1 (centres unmarked) [Example 205, Methyl 4-[(1-methyl-6-oxo-4-pyridin-4-yl-16-dihydropyrimidin-2-yl)amino]azepane-1-carboxylate]

inhibition at 1 µM (Examples 236-262): 47%
SMILES: CN(c1nc(-c2ccncc2)cc(=O)n1C)[C@H]1CC[C@H]2N(Cc3ccccc3)CC[C@@]2(C)C1 [Example 254, 2-{[(3a,S5,S7,aR)-1-Benzyl-3a-methyloctahydro-1H-indol-5-yl](methyl)amino}-3-methyl-6-pyridin-4-ylpyrimidin-4(3H)-one]

IC50 (Examples 1-35): 16 nM
SMILES: Cn1c(NCCc2nc(-c3ccccc3)cs2)nc(-c2ccncc2)cc1=O [Example 29, 3-Methyl-2-{[2-(4-phenyl-1,3-thiazol-2-yl)ethyl]amino}-6-pyridin-4-ylpyrimidin-4(3H)-one]

inhibition at 1 µM (Examples 236-262): 52%
SMILES: CN1CCC(N(C)c2nc(-c3ccncc3)cc(=O)n2C)C1 (centres unmarked) [Example 245, 3-Methyl-2-[methyl(1-methylpyrrolidin-3-yl)amino]-6-pyridin-4-ylpyrimidin-4(3H)-one]

inhibition at 1 µM (Examples 236-262): 71%
SMILES: CCN(c1nc(-c2ccncc2)cc(=O)n1C)C1CCN(Cc2ccccc2)C1 (centres unmarked) [Example 257, 2-[(1-Benzylpyrrolidin-3-yl)(ethyl)amino]-3-methyl-6-pyridin-4-ylpyrimidin-4(3H)-one]
